Measurements reported in patent US8846692B2, “Carboxylic acid derivatives having a 2,5-substituted oxazolopyrimidine ring” (Sanofi, priority 2010, dated 2014).

These molecules were tested against T1, human Edg-1 receptor (Homo sapiens, UniProt P21453) (assay: GTP-γ-S assay using human Edg-1 receptors (scintillation proximity assay, CHO Flp-In cell membrane preparation)). Conditions: test compound at 10 μM; 10 μM S1P high control regarded as 100% activation; triplicate.
T1 construct: expressed in transfected cells; membrane preparation
Assay type: biochemical
Excerpt: Determination of the Pharmacological Activity A) GTP-γ-S Assay Using Human Edg-1 Receptors
In order to determine the Edg-1 receptor activation by the compounds of the invention, a GTP-γ-S (guanosine 5′-[γ-thio]triphosphate) assay for G-protein coupled receptor binding based on the scintillation proximity assay principle was used, employing a cell membrane preparation from a CHO Flp-In cell line which constitutively overexpresses the human Edg-1 receptor.
A membrane preparation was obtained by standard methods from the afore-described CHO Flp-In cell line constitutively overexpressing the human Edg-1 receptor. Briefly, the cryopreserved cells were taken in culture and grown until confluency in T175 cell culture flasks (Becton Dickinson, cat. no. 35 5001). Cell culture was stopped by washing with calcium-free phosphate-buffered saline (PBS; Gibco, cat. no. 14190), and cells were harvested with a rubber-policeman in 4° C. cold and calcium-free PBS supplemented with a protease inhibitor cocktail (complete protease inhibitor; Roche, cat. no. 1697498; 1 tablet per 50 ml) and subsequently centrifuged at 4° C. for 15 min at 1100×g (Heraeus Minifuge T). For cell lysis, the pellet was resuspended in a 4° C. cold hypotonic buffer consisting of 5 mM HEPES (Sigma-Aldrich, cat. no. H-0981), 1 mM EDTA (disodium salt; Merck, cat. No. 8418) supplemented with protease inhibitor cocktail (as above) in which cells were stored for another 15 min on ice. After lysis, cells were centrifuged at 4° C. for 10 min at 400×g (Heraeus Minifuge T). The pellet was disrupted in a Dounce homogenizer, diluted with the supernatant of the previous centrifugation and subsequently centrifuged at 4° C. for 10 min at 500×g (Heraeus Minifuge T) in order to separate nuclei and still intact cells from the membranes mainly present in the supernatant. The supernatant was then diluted in hypotonic buffer and centrifuged (Beckmann, Avanti J251) at approximately 18600×g for 2 h at 4° C. After centrifugation, the membrane pellet was resuspended in a storing buffer consisting of 20 mM HEPES; 150 mM NaCl (Merck, cat. no. 6400), 1 mM EDTA (as above) supplemented with protease inhibitor cocktail (as above). The membrane preparation was aliquoted and stored at −80° C. Protein concentration of the membrane preparation was determined in a sample by means of a commercial protein assay (Bio-Rad, DC Protein Assay, cat. nos. 500-0113, 500-0114, 500-0115).
The Edg-1 membrane preparation obtained in (b) was employed in a commercially available scintillation proximity assay (SPA) kit for G-protein coupled receptor binding from Amersham Biosciences/GE Healthcare (code RPNQ0210), in which ligand-induced binding of ^35S-radiolabled GTP-γ-S to the receptor-containing membrane, which is bound to scintillation beads, stimulates the emission of light and allows to quantify the in vitro activity of the Edg-1 agonistic compound. The assay was performed on a 96-well plate scale substantially according to the manufacturer's instructions. Before start of the experiments, scintillation beads were suspended in a reconstitution buffer consisting of Tris-HCl (pH 7.4) supplemented with 0.1% (w/v) sodium azide and subsequently diluted on ice with assay buffer (consisting of 20 mM HEPES, 100 mM NaCl, 1 mM EDTA (as above), 1 mM dithiothreitol (DTT), adjusted to pH 7.4) to a final bead concentration of 30 mg/ml.
Wells were charged with 10 μl of the specified assay buffer, 10 μl of a 100 μM guanosine diphosphate (GDP) solution, and 10 μl of a solution of the test compound in assay buffer/dimethylsulfoxide resulting in a final concentration of the test compound of 10 μM. For the high controls, 10 μl of a solution of sphingosine-1-phosphate (S1P; Sigma, cat. no. S-9666), resulting in a final S1P concentration of 10 μM, and for the low controls 10 μl of assay buffer, was added into respective wells instead of the solution of the test compound. All wells contained equivalent amounts of dimethylsulfoxide. […]

T1 sequence (P21453 whole entry): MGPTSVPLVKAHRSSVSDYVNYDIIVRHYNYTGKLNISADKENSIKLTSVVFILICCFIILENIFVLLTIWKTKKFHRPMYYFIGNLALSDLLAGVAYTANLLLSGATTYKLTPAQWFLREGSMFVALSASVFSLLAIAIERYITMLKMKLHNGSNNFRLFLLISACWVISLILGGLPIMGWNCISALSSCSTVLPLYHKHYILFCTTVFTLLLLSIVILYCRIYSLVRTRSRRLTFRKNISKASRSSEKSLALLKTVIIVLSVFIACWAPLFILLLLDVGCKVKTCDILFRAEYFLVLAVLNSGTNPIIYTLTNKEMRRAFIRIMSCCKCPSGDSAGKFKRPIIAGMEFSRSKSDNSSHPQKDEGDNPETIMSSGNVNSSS

| SMILES | % Activation (Edg-1 receptor activation in percent of the activation by 10 μM S1P) [%] |
| --- | --- |
| Cc1cc(-c2nc3cnc(Oc4cccc(Cl)c4)nc3o2)cc(C)c1OCC(=O)O [Example 8, {4-[5-(3-chloro-phenoxy)-oxazolo[5,4-d]pyrimidin-2-yl]-2,6-dimethyl-phenoxy}-acetic acid] | 74 |

Same assay, conditions: test compound at 10 μM; 10 μM S1P high control regarded as 100% activation; triplicate; read-out: % Activation (Edg-1 receptor activation in percent of the activation by 10 μM S1P)

| SMILES | activation at 10 µM [%] |
| --- | --- |
| Cc1cc(-c2nc3cnc(Oc4ccccc4)nc3o2)cc(C)c1OCC(=O)O [Example 1, [2,6-Dimethyl-4-(5-phenoxy-oxazolo[5,4-d]pyrimidin-2-yl)-phenoxy]-acetic acid] | 116 |
| O=C(O)/C=C/c1ccc(-c2nc3cnc(Oc4ccccc4F)nc3o2)cc1 [Example 2, (E)-3-{4-[5-(2-Fluoro-phenoxy)-oxazolo[5,4-d]pyrimidin-2-yl]-phenyl}-acrylic acid] | 83 |
| Cc1cc(-c2nc3cnc(Oc4ccc(F)cc4F)nc3o2)cc(C)c1OCC(=O)O [Example 3, {4-[5-(2,4-difluoro-phenoxy)-oxazolo[5,4-d]pyrimidin-2-yl]-2,6-dimethyl-phenoxy}-acetic acid] | 95 |
| Cc1cc(-c2nc3cnc(Oc4cc(F)ccc4F)nc3o2)cc(C)c1OCC(=O)O [Example 4, {4-[5-(2,5-difluoro-phenoxy)-oxazolo[5,4-d]pyrimidin-2-yl]-2,6-dimethyl-phenoxy}-acetic acid] | 103 |
| Cc1ccc(Oc2ncc3nc(-c4cc(C)c(OCC(=O)O)c(C)c4)oc3n2)c(F)c1 [Example 5, {4-[5-(2-fluoro-4-methyl-phenoxy)-oxazolo[5,4-d]pyrimidin-2-yl]-2,6-dimethyl-phenoxy}-acetic acid] | 101 |
| Cc1cc(-c2nc3cnc(Oc4ccccc4F)nc3o2)cc(C)c1OCC(=O)O [Example 6, {4-[5-(2-fluoro-phenoxy)-oxazolo[5,4-d]pyrimidin-2-yl]-2,6-dimethyl-phenoxy}-acetic acid] | 110 |
| Cc1cc(-c2nc3cnc(Oc4ccccc4F)nc3o2)cc(C)c1OC(C)C(=O)O (stereo not drawn) [Example 7, 2-{4-[5-(2-fluoro-phenoxy)-oxazolo[5,4-d]pyrimidin-2-yl]-2,6-dimethyl-phenoxy}-propionic acid] | 84 |
| Cc1ccc(Oc2ncc3nc(-c4cc(C)c(OCC(=O)O)c(C)c4)oc3n2)cc1F [Example 9, {4-[5-(3-fluoro-4-methyl-phenoxy)-oxazolo[5,4-d]pyrimidin-2-yl]-2,6-dimethyl-phenoxy}-acetic acid] | 87 |
| Cc1ccc(F)cc1Oc1ncc2nc(-c3cc(C)c(OCC(=O)O)c(C)c3)oc2n1 [Example 10, {4-[5-(5-fluoro-2-methyl-phenoxy)-oxazolo[5,4-d]pyrimidin-2-yl]-2,6-dimethyl-phenoxy}-acetic acid] | 112 |
| Cc1cc(-c2nc3cnc(Oc4ccc(Cl)cc4)nc3o2)cc(C)c1OCC(=O)O [Example 11, {4-[5-(4-chloro-phenoxy)-oxazolo[5,4-d]pyrimidin-2-yl]-2,6-dimethyl-phenoxy}-acetic acid] | 105 |
| Cc1cc(-c2nc3cnc(OC4CCCC4)nc3o2)cc(C)c1OCC(=O)O [Example 12, [4-(5-cyclopentyloxy-oxazolo[5,4-d]pyrimidin-2-yl)-2,6-dimethyl-phenoxy]-acetic acid] | 46 |
